Source: a melting point compilation (Tetko et al.; mined from patent text by program, amines drawn as free bases though some values may be those of a salt)

Row | SMILES | melting point
1 | CCCCNC(=O)NS(=O)(=O)c1ccc(CCNC(=O)N2Cc3c(Cl)cc(Cl)cc3C2=O)cc1 | 190 to 192 °C
2 | CNc1c(NCCSCc2ccc(CN(C)C)o2)c(=O)c1=O | 176 to 178 °C
3 | COc1ccc(NCC2CCn3c(nc4ccccc43)S2)cc1 (centres undefined) | 155 to 157 °C
4 | CC1=NN(c2ccc(C)c(C)c2)C(=O)C1=NNc1cccc(-c2cccc(P(=O)(O)O)c2)c1O | 144 to 149 °C
5 | CCC(=O)Nc1ccc(-c2c[nH]c(=O)cn2)cc1 | 270 to 272 °C
6 | CCCc1nc2c(N)nc3cc(F)ccc3c2s1 | 192 to 194 °C
7 | CCN(CC)c1cccc(-c2ccnc3c(C(=O)c4cccs4)cnn23)c1 | 102 to 104 °C
8 | CC(C)(C)C(=O)c1c[nH]c2ncc(Cl)nc12 | 209 to 210 °C
9 | COc1ccc(C2=NN(c3cc(C)c4c(C)nn(C)c4n3)C(=O)[C@H]3CC=CC[C@@H]23)cc1Cl (relative stereo) | 217 to 219 °C
10 | COC(=O)c1cc(-c2cccs2)cc(C)c1NS(=O)(=O)c1ccc(OC)cc1 | 91 °C
11 | C[C@@H]1CN(CC(=O)Nc2nccc3ccccc23)C[C@H](C)N1c1ncnc2sccc12 | 206 to 207 °C
12 | CC(Oc1cc(O)ccn1)C(F)(F)F (centres undefined) | 67 to 69 °C
13 | NC1=Nc2ccc(OC(F)(F)F)cc2CS1 | 115 to 118 °C
14 | CCOc1cc(N)c(Cl)cc1C(=O)NCC1CN(Cc2ccccc2Cl)C(C)(C)CO1 (centres undefined) | 181 to 184 °C
15 | Cc1ccc(S(=O)(=O)ON=C2CC(c3ccccc3)c3ccccc32)cc1 (centres undefined) | 123 to 127 °C
16 | O=C(NCC1Cc2ccc3ccccc3c2O1)OCc1ccccc1 (centres undefined) | 110 to 112 °C
17 | c1ccc(Cn2c3c(c4ccccc42)CCC(Cc2nnn[nH]2)S3)cc1 (centres undefined) | 160 to 165 °C
18 | CCOCOC1CCC2(C)C(=CCC3C2CCC2(C)C(C(C)CCCC(C)C)CCC32)C1 (centres undefined) | 64 to 66 °C
19 | O=C(O)C(Cc1cnc2cc(OCc3ccc(Cl)cc3)ccc2c1)Sc1ccccc1 (centres undefined) | 157 to 158 °C
20 | Cn1c2ccccc2c(=O)c2ccc(Cl)n21 | 88.5 to 90.5 °C
21 | N#Cc1c(N)nc2ccc(N3CCN(Cc4ccccc4)CC3)cc2c1NCc1ccccc1 | 202 °C
22 | CC(C)(C)C(=O)C(=Cc1ccc(Cl)cc1)n1cncn1 | 82 °C
23 | CC(=O)c1ccc(NCc2ccc3ccc4nc(C)[nH]c(=O)c4c3c2)cc1 | > 235 °C
24 | N#Cc1ccc(C(=O)N2CCN(C(=O)[C@@H]3CCCN3S(=O)(=O)c3ccc(Cl)c(CBr)c3Cl)CC2)cc1 | 115 °C
25 | CC1CC(c2ccccc2)(N(C)C)CCC1=O (centres undefined) | 50 °C

Row | SMILES | melting point
26 | O=C(Oc1cc(OC(=O)c2ccccc2)c(C(=O)C=Cc2ccc(O)cc2)c(OC(=O)c2ccccc2)c1)c1ccccc1 | 198 to 200 °C
27 | CC(C)(/C=C/c1ccc(C(=O)O)cc1)c1ccc2c(c1)C(C)(C)CCC2(C)C | 219 to 220 °C
28 | COc1ccc(C(OCC2OC(n3cnc4c(N)nc(F)nc43)CC2O)(c2ccccc2)c2ccc(OC)cc2)cc1 (centres undefined) | 239 to 243 °C
29 | Oc1c(CN2CCOCC2)ncc2c1COC2c1ccccc1 (centres undefined) | 172 °C
30 | O=C(O)CCC1CCCC2CCC(=O)NC12 (centres undefined) | 95 to 97 °C
31 | CN(C)C(=O)C(C)(c1ccccc1)n1ccc(-c2ccccc2)n1 (centres undefined) | 129 to 132 °C
32 | Cc1ccc(C)c(NC(=O)N2CCC(C#N)CC2)c1 | 187 to 190 °C
33 | CCC1=C(C)C(=O)NC1C (centres undefined) | 83 °C
34 | COc1cccc(C(=O)c2ccc(C(F)(F)F)cc2)c1 | 69 °C
35 | CC(C)c1cccc(C(C)C)c1NC(=O)CN1C(=O)N(c2ccccc2)C2(CCCC2)C1=O | 275 to 277 °C
36 | NS(=O)(=O)c1cccc(-c2cc(-c3nc(-c4ccc(C(F)(F)F)nc4)cc(C(F)(F)F)n3)ccn2)c1 | 258 °C
37 | Cc1ccccc1C(=O)Nc1ccc(C(=O)N2CCCC(C)(O)c3ccccc32)cc1 (centres undefined) | 204 to 205 °C
38 | ClCc1coc(-c2cc(Cl)cs2)n1 | 72 to 73 °C
39 | Fc1ccccc1-c1ccc(Br)cc1F | 45 to 46 °C
40 | Fc1ccc(N2CCN(CCCc3[nH]nc4c3CCCC4)CC2)cc1 | 106 to 108 °C
41 | CN(CC(=O)OC(C)(C)C)c1nccc(-c2nc(=O)c3ccccc3s2)n1 | 186 to 188 °C
42 | CS(=O)(=O)c1ccc(C(O)C(CF)N=[N+]=[N-])cc1 (centres undefined) | 121 to 123 °C
43 | OCCSC/C=C/c1ccc(Cc2cccnc2)cc1 | 73 to 74 °C
44 | CCn1cnc2c(Nc3cccc(F)c3)nc(NCCO)nc21 | 184 °C
45 | COc1ccc(-c2cncc(C#N)c2Oc2ccc3[nH]ccc3c2)cc1OC | 192 to 194 °C
46 | Cn1cc(C2CCN(CCCCNC(=O)c3sc(-c4ccc(C(F)(F)F)cc4)nc3CO)CC2)c2ccccc21 | 160 °C
47 | COc1cc(C=O)cc(I)c1OCc1ccccc1 | 53 to 54 °C
48 | COC(=O)C1(C)CN(C(=O)Nc2ccc(Cl)cc2)N=C1c1ccc(Cl)cc1 (centres undefined) | 122 °C
49 | CNC1=NS(=O)(=O)N=C1NCCCOc1cccc(CN2CCCCC2)c1 | 182 to 184 °C
50 | COc1cc(Nc2nccc(-c3ccc(N4CC(C)NC(C)C4)nc3)n2)cc(OC)c1OC (centres undefined) | 110 to 111 °C

Row | SMILES | melting point
51 | CCC1c2cccn2-c2cc(OC)c(F)cc2N1S(=O)(=O)c1ccc(OC)c(C)c1 (centres undefined) | 130 to 132 °C
52 | Oc1ccc(N2CCN(Cc3c[nH]c4ncccc34)CC2)cc1 | 197 to 200 °C
53 | CC(OCn1cc(Cl)cnc1=O)c1ccccc1 (centres undefined) | 139 °C
54 | CCOC(=O)CCCc1ccc(Nc2ncc3cc(-c4c(Cl)cccc4Cl)c(=O)n(C)c3n2)cc1 | 169 to 170 °C
55 | CCCNC(=S)NS(=O)(=O)N1CCC(CCNC(=O)c2cc(Cl)ccc2OC)CC1 | 119 to 121 °C
56 | CC(C)CCOC(=O)COc1cc(F)ccc1C(=S)NCc1cccc([N+](=O)[O-])c1 | 56 to 58 °C
57 | CCOC(=O)C1=C(C)NC(N)=C(C(=O)OC(C)C)C1c1ccccc1[N+](=O)[O-] (centres undefined) | 139 °C
58 | CCn1cc(C(=O)O)c(=O)c2cc(F)c(N3CCOC(CN(C)C)C3)c(F)c21 (centres undefined) | 185 to 188 °C
59 | COCOC1=C(C(N)=O)CC(C#N)(c2ccc(OC)c(OCC3CC3)c2)CC1 (centres undefined) | 120 to 122 °C
60 | CCOC(=O)c1cn(CCc2cccc(F)c2)c2cc(C3CC3)nn2c1=O | 160 to 165 °C
61 | CC(=O)NC(Cc1ccccc1)C1CC(Cc2ccccc2)=NO1 (centres undefined) | 97.8 to 98.4 °C
62 | N#CSCC(I)=C(I)CBr | 84 to 86 °C
63 | OC1CSC(Oc2cncc(-c3ncccn3)c2)C(O)C1O (centres undefined) | 201 °C
64 | COC(=O)C1=CC(=O)CC(c2ccc(Cl)cc2)N1 (centres undefined) | 113 to 114 °C
65 | CCOC(=O)c1cc(=O)c2c(OCC(O)COc3cccc(O)c3C(=O)C=CN(C)C)cccc2o1 (centres undefined) | 159 to 165 °C
66 | COc1ccc(C(=O)N2CCN(c3ccc([N+](=O)[O-])c(C=CC(=O)O)c3)CC2)cc1OC | 197 to 202 °C
67 | O=[N+]([O-])c1ccc(-c2nnn(Cc3ccccc3)n2)cc1 | 139 to 141 °C
68 | Nc1ccc(C#Cc2ccc(OC3CN4CCC3CC4)nn2)cc1 (centres undefined) | 212 to 220 °C
69 | Cc1ccc(C#N)c(OCc2ccc(OCc3nc(-c4ccccc4)oc3C)cc2)n1 | 116 to 117 °C
70 | O=C(NCCCn1cnc(-c2ccccc2)c1)c1ccco1 | 120 to 122 °C
71 | COc1ccc2c(c1)c1c3c(c(-c4ccccc4Cl)cc1n2CCO)C(=O)NC3=O | 255 to 257 °C
72 | COc1ccc(N2CCOCC2)c2sc(NC(=O)NC3CCCC3)nc12 | 191 to 194 °C
73 | O=C(c1ccc(N2CCCC2)cc1)C1CCN(Cc2ccccc2)CC1 | 154 to 156 °C
74 | CN(c1cccc2cc(C3=NCC(CC(=O)O)S3)[nH]c12)S(=O)(=O)c1ccccc1C(F)(F)F (centres undefined) | 170 to 172 °C
75 | O=C(NC(=O)c1c(Cl)cccc1Cl)Nc1ccc(Sc2ccc(Cl)cc2)nc1 | 160 to 162 °C

Row | SMILES | melting point
76 | c1ccc2c(c1)CCc1cccnc1C2C1CCNCC1 (centres undefined) | 111 to 114 °C
77 | COCCOC(=O)c1ccccc1Nc1nc(Nc2cc3c(cc2OC)CCN(CCO)CC3)ncc1Cl | 125 to 131 °C
78 | CCCCCCSCCSCCSc1nc2nc(C)cc(O)n2n1 | 119 to 121 °C
79 | Cc1nc(-c2ccc(O)cc2)[nH]c1Br | 205 to 212 °C
80 | COc1ccc(S(=O)(=O)N2CCc3cccc(-c4ccc(Cl)cc4)c32)cc1 | 177 to 178 °C
81 | COCCOc1ccc(CCNC(=O)C=Cc2ccc(OC)cc2OC)cc1S(N)(=O)=O | 175 to 178 °C
82 | Cc1nc(-c2cccs2)c2nc(-c3ccccc3)cc-2[nH]1 | 178 to 179 °C
83 | COC(=O)COc1cccc2c1CCC(Cc1coc(C(c3ccccc3)c3ccccc3)n1)C2 (centres undefined) | 91 to 93 °C
84 | CN(CCCN1CCC(=C2c3ccccc3C=Cc3ccccc32)CC1)c1ncccn1 | 129 °C
85 | CCc1nc2c(N)nc3cc(OCC(=O)N4CCOCC4)ccc3c2n1CC(C)C | 219 to 220 °C
86 | CC1CC(=O)NN=C1c1ccc(NCCNC(N)=S)c([N+](=O)[O-])c1 (centres undefined) | 231 to 233 °C
87 | CC(=O)N(C)C1CCc2c([nH]c3ccccc23)C1 (centres undefined) | 215 to 216 °C
88 | COc1ccc(C(C)COc2nc(N)c3ncn(C4OC(CO)C(O)C4O)c3n2)cc1 (centres undefined) | 90 to 105 °C
89 | N#CC=Cc1ccc(NC(=O)C=CC=C(Nc2cc(Cl)cc(Cl)c2I)C(=O)OCc2ccccc2)cc1 | 132 to 134 °C
90 | O=C(O)C(=O)C12CC3CC(CC(O)(C3)C1)C2 | 164 to 166 °C
91 | CNC(=S)n1nc(-c2ccc(Cl)c3ccccc23)nc1N | 270 to 272 °C
92 | Cc1cc(N)c(Br)c(C)c1C | 69 °C
93 | Cc1nc(-n2ccc(OCC3CCCO3)cc2=O)sc1C(=O)NCc1ccccc1 (centres undefined) | 181 to 183 °C
94 | CCCOc1ccc(S(=O)(=O)N2CCN(Cc3ccccc3)CC2)cc1-c1nc2cc(Cl)c([N+](=O)[O-])cc2c(=O)[nH]1 | 198 to 200 °C
95 | CN(C)S(=O)(=O)N1CCNC1=O | 129 °C
96 | N#Cc1cc2nc(O)c(O)nc2c2ccccc12 | > 300 °C
97 | CN1C(=O)C2(COc3cc4c(cc32)OCCO4)c2c(C(=O)NC3CCCCC3)cccc21 (centres undefined) | 139 to 140 °C
98 | CCCCCCCCC1OC(=O)c2cc(N)ccc21 (centres undefined) | 124 to 125 °C
99 | NS(=O)(=O)c1cccc2c1ccc1nc(O)c(O)nc12 | 420 °C
